The test system of series [1] is reproductive cycle. The experiment in a line: Reproductive cycle change assay by vaginal smearing. It counts as in vivo, CD-1 mice. The note with it: subcutaneous injection for 14 days, FIG. 9. As for the experimental part: (§1) The placenta 1 extract prepared according to the example was dissolved with 100% ethanol as a primary solvent, and sesame oil for body injection was added thereto to obtain a 1 g/ml concentration, and the resultant product was diluted into 0.1% concentration. Herein, 100% was defined as a case in which the extract was diluted with sesame oil by a factor of 100. The diluted extract was subcutaneously injected for 14 days to 6-8 week-old CD-1 mice which had been raised under physiological conditions (6 mice per each group).
To identify effects of the placenta extract on a reproductive cycle, a reproductive cycle was assayed by vaginal smearing during the administration of the placenta extract.

Series [2] has as its system CD34 hematopoietic stem cells. The experiment in a line: CD34-marked numerical change assay of hematopoietic stem cells using FACS. It counts as in vivo, CD-1 mouse. The note with it: 0.1% placenta extract, subcutaneous, 14 days, FIG. 10. On the procedure: as §1
Whether the placenta extract promotes proliferation of hematopoietic stem cells was identified with CD34 that is a marking factor. CD-1 mouse treated with 0.1% placenta extract was sacrificed to collect a thighbone, and then, a bone marrow was extracted therefrom by using PBS solution. Thereafter, the bone marrow was reacted with CD34 specific antibody, and then, CD34 hematopoietic stem cells were counted by using a fluorescent activated cell sorter.

In series [3] the test system is red blood cells. The experiment in a line: Numerical change assay of red blood cells in peripheral blood. The note with it: 0.1% placenta extract, subcutaneous, 14 days; compared to the control; FIG. 11. It counts as in vivo, CD-1 mice. On the procedure: as §1
The cells were treated with 0.1% placenta extract under the same conditions as described above, and then, peripheral blood was collected, and then, 1 mg/ml of EDTA was added thereto to prevent blood coagulation. Then, the number of red blood cells was counted by using an analyzer.

With `C[C@]12CC[C@H]3[C@@H](CCC4=CC(=O)CC[C@@H]43)[C@@H]1CC[C@@H]2O` [nandrolone], the reproductive cycle periodicity entry in series [1] was “a reproductive cycle gradually became non-periodic”. In addition, the “number of CD34 hematopoietic stem cells in bone marrow” value in series [2] is given as “the number of hematopoietic stem cells significantly increased”. Moreover, the “number of red blood cells in peripheral blood” value in series [3] is on record as “the number of red blood cells significantly increased”.

Source of the values: patent US20130072466A1, “COMPOSITION CONTAINING PLACENTA EXTRACTS” (Industry-Academic Cooperation Foundation, Yeungnam …, priority 2010, published 2013).
